Publication PMC12114839 (2025)

Tested on: c-MYC G4 DNA (Pu27) (DNA, G4) TGAGGGTGGGTAGGGTGGGTAA
Test: UV-Vis absorbance titration
Conditions: 100 mM K+ (KCl); 10 mM Tris-HCl pH 7.4, 1 mM EDTA, 25 °C; 5 µM DNA, 0-20 µM EGCG; no Kd determined

binding: yes
Compound: O=C(O[C@@H]1Cc2c(O)cc(O)cc2O[C@@H]1c1cc(O)c(O)c(O)c1)c1cc(O)c(O)c(O)c1
